Data reported in patent US20060084135A1, “Compositions for manipulating the lifespan and stress response of cells and organisms” (priority 2003, published 2006).
One block for each molecule: values may come before it.

Biological target: T1, recombinant human SIRT1 (Homo sapiens, UniProt Q96EB6)
T1 sequence (Q96EB6 1-747): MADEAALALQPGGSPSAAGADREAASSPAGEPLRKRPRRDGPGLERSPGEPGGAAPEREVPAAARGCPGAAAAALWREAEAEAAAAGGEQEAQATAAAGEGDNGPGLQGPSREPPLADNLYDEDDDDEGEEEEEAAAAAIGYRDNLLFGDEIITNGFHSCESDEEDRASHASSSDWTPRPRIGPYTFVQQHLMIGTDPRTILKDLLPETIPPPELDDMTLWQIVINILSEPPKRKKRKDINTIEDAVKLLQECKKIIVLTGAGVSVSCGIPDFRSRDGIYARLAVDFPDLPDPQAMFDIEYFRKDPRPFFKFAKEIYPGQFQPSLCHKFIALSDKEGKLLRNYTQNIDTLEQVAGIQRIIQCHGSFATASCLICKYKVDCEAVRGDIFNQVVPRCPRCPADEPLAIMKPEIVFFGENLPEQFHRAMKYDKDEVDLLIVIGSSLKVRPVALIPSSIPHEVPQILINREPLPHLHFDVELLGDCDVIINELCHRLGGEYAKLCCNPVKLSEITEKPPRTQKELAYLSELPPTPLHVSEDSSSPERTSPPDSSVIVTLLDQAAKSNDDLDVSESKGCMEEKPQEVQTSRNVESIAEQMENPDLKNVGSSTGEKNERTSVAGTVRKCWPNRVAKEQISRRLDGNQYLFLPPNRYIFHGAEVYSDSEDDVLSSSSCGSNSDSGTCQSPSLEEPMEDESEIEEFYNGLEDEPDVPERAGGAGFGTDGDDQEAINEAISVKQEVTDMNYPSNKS
Assay: SIRT1 fluorescent deacetylation assay (p53-382 acetylated peptide substrate)
Format: biochemical
Conditions: for Ratio to Control Rate Mean ± SE: 100 μM, 25 μM NAD+, 25 μM p53-382 acetylated peptide

[1] = Supplementary Table 4, isoflavones, flavanones, anthocyanidins
[2] = Supplementary Table 3, flavones part II
[3] = Supplementary Table 2, flavones part I

SMILES: Cc1c(C)c2c(c(C)c1O)CCC(C)(CN1CCN(c3cc(N4CCCC4)nc(N4CCCC4)n3)CC1)O2.Cl.Cl (single isomer, unassigned; (-)) [Compound U-83836E, (−)-2-((4-(2,6-di-1-Pyrrolidinyl-4-pyrimidinyl)-1-piperazinyl)methyl)-3,4-dihydro-2,5,7,8-tetramethyl-2H-1-benzopyran-6-ol-2HCl, reference compound]
Ratio to Control Rate Mean ± SE (Supplementary Table 6, free radical protective compounds): 1.030 ± 0.055

SMILES: O=C(/C=C/c1ccc(O)c(O)c1)c1c(O)cc(O)cc1O [3,4,2′,4′,6′-Pentahydroxychalcone]
Ratio to Control Rate Mean ± SE (Supplementary Table 1, stilbenes and chalcones): 2.80 ± 0.32

SMILES: Oc1ccc(/C=C/c2ccccc2)cc1O [3,4-Dihydroxy-trans-stilbene]
Ratio to Control Rate Mean ± SE (Table 12, resveratrol analogs): 1.64 ± 0.10

SMILES: COc1ccc(/C=C/c2ccccc2)cc1OC [3,4-Dimethoxy-trans-stilbene]
Ratio to Control Rate Mean ± SE (Table 12, resveratrol analogs): 1.127 ± 0.019

SMILES: O=C1c2c(O)cc(O)cc2OC(c2ccc(O)c(O)c2)C1O (stereo not drawn) [3,5,7,3′,4′-Pentahydroxyflavanone]
Ratio to Control Rate Mean ± SE [1]: 1.97 ± 0.22

SMILES: O=c1c(O)c(-c2cccc(O)c2O)oc2ccc(O)cc12 [3,6,2′,3′-Tetrahydroxyflavone]
Ratio to Control Rate Mean ± SE [2]: 1.74 ± 0.27

SMILES: O=c1c(O)c(-c2ccc(O)cc2O)oc2ccc(O)cc12 [3,6,2′,4′-Tetrahydroxyflavone]
Ratio to Control Rate Mean ± SE [3]: 2.10 ± 0.22

SMILES: O=c1c(O)c(-c2ccc(O)c(O)c2)oc2ccc(O)cc12 [3,6,3′,4′-Tetrahydroxyflavone]
Ratio to Control Rate Mean ± SE [3]: 5.45 ± 0.57

SMILES: O=c1c(O)c(-c2cc(O)c(O)c(O)c2)oc2cc(O)ccc12 [3,7,3′,4′,5′-Pentahydroxyflavone]
Ratio to Control Rate Mean ± SE [2]: 0.826 ± 0.074

SMILES: Oc1cccc(/C=C/c2ccccc2)c1 [3-Hydroxystilbene]
Ratio to Control Rate Mean ± SE (Table 11, resveratrol analogs): 2.357 ± 0.074

SMILES: Oc1ccc(/C=C/c2ccccc2)cc1 [4-Hydroxy-trans-stilbene]
Ratio to Control Rate Mean ± SE (Table 13, resveratrol analogs): 0.943 ± 0.039

SMILES: COc1ccc(/C=C/c2ccccc2)cc1 [4-Methoxy-trans-stilbene]
Ratio to Control Rate Mean ± SE (Table 13, resveratrol analogs): 0.840 ± 0.089

SMILES: O=c1cc(-c2cc(O)c(O)c(O)c2)oc2cc(O)cc(O)c12 [5,7,3′4′,5′-Pentahydroxyflavone]
Ratio to Control Rate Mean ± SE [3]: 6.05 ± 0.98

SMILES: O=C(O[C@@H]1Cc2c(O)cc(O)cc2O[C@@H]1c1cc(O)c(O)c(O)c1)c1cc(O)c(O)c(O)c1 [(−)-Epigallocatechin Gallate]
Ratio to Control Rate Mean ± SE (Supplementary Table 5, catechins): 0.32 ± 0.12

Next, values leading:

Ratio to Control Rate Mean ± SE [2]: 1.73 ± 0.12
SMILES: O=c1cc(-c2ccc(O)cc2)oc2ccccc12 [4′-Hydroxyflavone]

Ratio to Control Rate Mean ± SE [2]: 1.56 ± 0.15
SMILES: O=c1cc(-c2ccc(O)cc2)oc2cccc(O)c12 [5,4′-Dihydroxyflavone]

Ratio to Control Rate Mean ± SE [1]: 1.109 ± 0.026
SIRT1 stimulating activity (in words) (polyphenol screen): absence of activity
SMILES: O=c1c(-c2ccc(O)cc2)coc2cc(O)cc(O)c12 [5,7,4′-Trihydroxyisoflavone]

Ratio to Control Rate Mean ± SE [2]: 1.51 ± 0.18
SMILES: O=c1cc(-c2ccccc2)oc2cc(O)cc(O)c12 [5,7-Dihydroxyflavone]

Ratio to Control Rate Mean ± SE [2]: 1.22 ± 0.19
SMILES: O=c1cc(-c2ccccc2)oc2cccc(O)c12 [5-Hydroxyflavone]

Ratio to Control Rate Mean ± SE [3]: 3.06 ± 0.29
SMILES: O=c1cc(-c2ccc(O)cc2)oc2cc(O)c(O)c(O)c12 [6-Hydroxyapigenin, 5,6,7,4′-Tetrahydroxyflavone]

Ratio to Control Rate Mean ± SE [3]: 3.62 ± 0.56
SMILES: O=c1cc(-c2cc(O)c(O)c(O)c2)oc2cc(O)ccc12 [7,3′,4′,5′-Tetrahydroxyflavone]

Ratio to Control Rate Mean ± SE [3]: 1.91 ± 0.17
SMILES: O=c1cc(-c2ccc(O)cc2)oc2cc(O)ccc12 [7,4′-Dihydroxyflavone]

Ratio to Control Rate Mean ± SE [2]: 1.91
SMILES: O=c1c(O)c(-c2ccc(O)cc2)oc2c(O)c(O)ccc12 [7,8,3,4′-Tetrahydroxyflavone]
